“Also recorded” adds a separate entry of the source. Peptide text beside a SMILES is read from it. Some results are limits rather than exact numbers.

Assay [1] addresses T1, TRPV3 channels expressed in HEK-293 cells (Homo sapiens, UniProt Q8NET8).
T1 construct: expressed in transfected cells; host or cells: HEK-293 cells, transient transfection
T1 sequence (Q8NET8 1-790): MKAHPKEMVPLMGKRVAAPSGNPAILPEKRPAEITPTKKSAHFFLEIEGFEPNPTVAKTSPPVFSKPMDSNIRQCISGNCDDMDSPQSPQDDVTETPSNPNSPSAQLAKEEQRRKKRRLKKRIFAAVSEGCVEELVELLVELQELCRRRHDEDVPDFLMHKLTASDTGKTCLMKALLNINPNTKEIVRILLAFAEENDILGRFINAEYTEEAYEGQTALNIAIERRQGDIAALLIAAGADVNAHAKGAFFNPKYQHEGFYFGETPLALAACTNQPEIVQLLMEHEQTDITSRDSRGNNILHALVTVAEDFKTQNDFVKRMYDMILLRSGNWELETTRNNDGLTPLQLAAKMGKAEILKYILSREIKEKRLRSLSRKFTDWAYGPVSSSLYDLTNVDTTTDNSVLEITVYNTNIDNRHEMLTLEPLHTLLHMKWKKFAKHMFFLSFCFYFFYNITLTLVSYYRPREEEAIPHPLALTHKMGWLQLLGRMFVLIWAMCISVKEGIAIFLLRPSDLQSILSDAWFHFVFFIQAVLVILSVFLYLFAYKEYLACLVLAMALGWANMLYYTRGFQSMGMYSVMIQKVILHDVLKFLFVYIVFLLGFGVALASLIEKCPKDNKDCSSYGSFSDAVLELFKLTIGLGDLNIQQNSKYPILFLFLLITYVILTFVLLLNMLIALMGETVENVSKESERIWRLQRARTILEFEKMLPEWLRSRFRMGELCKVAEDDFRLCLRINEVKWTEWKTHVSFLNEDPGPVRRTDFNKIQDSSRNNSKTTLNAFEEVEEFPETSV
As to the kind of experiment: Patch-clamp testing of TRPV3 channel activity in transfected HEK-293 cells. It is filed as cell-based. On the procedure: SOR-C13, SOR-C27 and SOR-N54 were tested using a patch clamp screen to determine whether the peptide had any effect on the channel activity of TRPV3. Ruthenium red, a known antagonist of TRPV3 and 2-Aminoethoxydiphenyl Borate (2-APB) a known activator of TRPV3 were used as controls.
HEK 293 cells were maintained in ϕ30 mm cell culture plate in DMEM media supplemented with 10% fetal bovine serum and penicillin/streptomycin. Cells were grown in a humidified atmosphere of 95% air/5% CO2 at 37° C. in a cell culture incubator.
The cells from 70-90% confluence were prepared for transfection. For transient expression in HEK-293 cells 1 μg plasmid cDNA and pEGFP (in vivo reporter of gene expression) were used.
Recordings were performed at 20˜23° C. Currents were sampled using Digidata 1440A, amplified, and filtered at 2 kHz using Axopatch 200B, then acquired and analyzed using pClamp 10.0 (Molecular Devices, Sunny vales, CA, USA).
The pipette solution and bath solution contained 140 mM CsCl, 4 mM MgCl2, 10 mM EGTA, CsOH pH=7.3 and 130 mM NaCl, 5 mM KCl, 2 mM CaCl2), 1 mM MgCl2, 25 mM HEPES, 30 mM Glucose, pH=7.3, respectively.
Each peptide was diluted in the bath solution to the desired concentration (0.01 μM, 0.03 μM, 0.1 μM, 0.3 μM, 1 μM, 3 μM, or 10 μM), respectively.

The test system of assay [2] is HaCaT cells. As to the kind of experiment: Wound healing (scratch gap closure) assay in HaCaT cells (Example 4). The format is cell-based, human. The note with it: for Migration Score (gap closure activity): HaCaT wound model. On the procedure:
SOR-C13 and SOR-C27 were tested for their ability to promote tissue repair in a human keratinocytes (HaCaT) model of wound healing. In this model, cells are grown to confluency and then a gap is made in the sheet of cells by scratching the surface of the cells. After treating the cells for 24 hours, the closure of the gap, and the state of the cells in terms of polarization and mobility into the gap, are measured as a surrogate for activation of the wound healing response and the proliferation and/or migration of cells involved in tissue repair.
HaCaT cells were plated at 4×10^5 per well in 12-well tissue culture plates in MEGM Bullet Kit (Lonza, Cat. #CC-3150) containing bovine pituitary extracts (BPE), hEGF, insulin, and hydrocortisone. The total volume was 2 ml. About 24 hours later, a gap at the bottom of each well was generated by scratching with a sterile pipette tip. The supernatant was aspirated and cells were washed gently once with PBS. Fresh media (MEGM Bullet Kit, 2 ml) was added after the wash. Cells were treated in duplicates with PBS, or SOR-C13 at 10, 100 and 1000 μM, or SOR-C27 at 10, 100 and 1000 μM, and 100 μM valproic acid. After 24 hours, each well was examined under the microscope to semi-quantify the gap closure by cell migration. A digital camera fixed to the microscope was used to capture images of cells.
Under visual inspection, the wound healing results was scored as: • “−”: minimal cell polarization toward wound, no initiation of cell protrusion into the gap; no change in the wound gap; • “+”: cell polarization toward wound was observed; cell protrusion was observed; cell migration started but gap size is between 75 to 100% of original wound gap; • “++”: cell polarization toward the wound was observed; cell protrusion was observed; cell migration across the gap was observed, and gap size ≤½ of original wound gap; • “+++”: cell polarization toward wound was observed; cell protrusion was observed; cell migration across the gap was observed, and gap size ≤⅓ of original wound gap. Results

Assay [3] concerns HaCaT cells. Description: Wound healing assay in HaCaT cells with SOR-C13 fragments (Example 5). The format is cell-based, human. The following applies: 24 hours. On the procedure:
HaCaT cells were plated at 1.6×10^5 per well in 24-well tissue culture plates in 1 ml of DMEM low glucose medium with 10% FBS. After 3 days, when the cells in each well were ˜100% confluent, a gap at the bottom of each well was generated by scratching with a sterile pipette tip. Supernatant was aspirated and cells were washed gently once with PBS. Fresh media (MEGM Bullet Kit, (Lonza, Cat. #CC-3150) containing bovine pituitary extracts (BPE), hEGF, insulin, and hydrocortisone was added after the wash with peptides. After 24 hours, cells were fixed with 2% paraformaldehyde with 15-minute incubation. Fixed cells were rinsed with PBS. Cells in each well were then examined under the microscope to semi-quantify the gap closure by cell migration. A digital camera fixed to the microscope was used to capture images of cells. The width of gap was measured by a ruler semi-quantitatively on the image. Under visual inspection, the wound healing results were also scored as “−”; “+”; “++”; or “+++” using the same criteria as set out in Example 4.
The effect of the peptides on tissue repair was determined using a wound healing assay that measures the migration of HaCaT cells. Gap size prior to and after treatment was semi-quantified by measuring the size of each gap on a digital photograph of the cells.

As for `CC(C)C[C@H](NC(=O)[C@H](Cc1ccccc1)NC(=O)[C@H](CCC(=O)O)NC(=O)[C@@H](N)CCCCN)C(=O)N[C@@H](Cc1cnc[nH]1)C(=O)N1CCC[C@H]1C(=O)N[C@@H](CO)C(=O)N[C@@H](CCCCN)C(=O)N[C@H](C(=O)N[C@@H](CC(=O)O)C(=O)N[C@@H](CC(C)C)C(=O)N1CCC[C@H]1C(=O)N[C@@H](CCCNC(=N)N)C(=O)O)C(C)C` [SOR-C13, KEFLHPSKVDLPR] (H-KEFLHPSKVDLPR-OH), in assay [1], it took 21.7 nM to reach a half-maximal effect (EC50). The “effect on migration of HaCaT cells through the scratch (words)” value in the assay with HaCaT cells [2] (10 μM, 24 hours) is “little difference compared to PBS treatment”; with HaCaT cells [2] (100 μM, 24 hours), “clearly had an effect to induce cell migration”; with HaCaT cells [2] (1000 μM, 24 hours) it was “dramatically closed”. Also, the “Migration Score (gap closure activity)” value in the assay on HaCaT cells [2] (10 uM, 24 hours) is “+ (cell polarization toward wound was observed; cell protrusion was observed; cell migration started but gap size is between 75 to 100% of original wound gap)”; in the assay on HaCaT cells [2] (100 uM, 24 hours), “++ (cell polarization toward the wound was observed; cell protrusion was observed; cell migration across the gap was observed, and gap size ≤½ of original wound gap)”; with HaCaT cells [2] (1000 uM, 24 hours), “+++ (cell polarization toward wound was observed; cell protrusion was observed; cell migration across the gap was observed, and gap size ≤⅓ of original wound gap)”. Moreover, the “effect on migration of HaCaT cells over the tested concentrations” value in the assay on HaCaT cells [2] (10, 100, 1000 μM, 24 hours) is listed as “promote tissue repair in a dose responsive manner; also recorded: dose-dependent effect on promoting the migration; also recorded: induced migration of HaCaT cells in a dose-dependent manner”. For the same compound, the “concentrations at which wound healing of HaCaT cells was promoted” value in the assay on HaCaT cells [2] (24-hour incubation) was no less than 100 µM. The “wound healing response, gap closure” value is “no response” in the assay on HaCaT cells [3] (1000 μM); “very good response” in the assay with HaCaT cells [3] (two lowest concentrations (10 and 100 μM)). Moreover, the “concentration dependence of wound healing response / gap closure” value in the assay on HaCaT cells [3] (10, 100 and 1000 μM) is reported as “lower concentrations of SOR-C13 are more effective than higher concentrations; also recorded: lower concentrations are more effect than higher concentrations”.

For the origin of these results see patent US12239729B2, “TRPV3 agonists for the treatment of skin conditions” (Soricimed Biopharma Inc., priority 2012, dated 2025).
